This note sets out measurements from patent publication US11873298B2, “Compounds and uses thereof” (JANSSEN PHARMACEUTICA NV, priority 2017, dated 2024).

Structures are written as SMILES. Some results are limits rather than exact numbers.

For one assay, the target named is T1, SCD1 (Homo sapiens, UniProt O00767).
T1 construct: host or cells: S. cerevisiae ole1Δ strain (W303 pdr1Δ pdr3Δ background), plasmid pRS316 with TDH3 promoter and CYC1 terminator
T1 sequence (O00767 1-359): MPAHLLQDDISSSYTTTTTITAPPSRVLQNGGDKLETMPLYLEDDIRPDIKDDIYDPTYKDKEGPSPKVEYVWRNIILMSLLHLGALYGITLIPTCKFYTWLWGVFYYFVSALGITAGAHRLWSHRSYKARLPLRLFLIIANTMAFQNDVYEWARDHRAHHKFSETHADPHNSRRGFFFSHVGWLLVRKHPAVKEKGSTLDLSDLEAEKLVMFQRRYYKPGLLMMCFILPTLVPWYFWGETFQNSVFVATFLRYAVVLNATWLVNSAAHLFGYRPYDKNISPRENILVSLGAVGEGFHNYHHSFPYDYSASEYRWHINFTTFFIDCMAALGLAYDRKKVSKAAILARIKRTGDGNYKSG
The assay can be described thus: Growth inhibition of humanized yeast strain expressing SCD1 as sole desaturase. It is filed as cell-based. An outline of the steps:
(§1)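 Measured by optical density at 600 nm, growth of desaturase-dependent yeast (OLE1 deleted; human SCD1, human SCD5 or yeast Ole1 supplied from plasmid) was scored after 24 h (Ole1) or 40 h (SCD1, SCD5) at 30° C. in galactose media lacking uracil with DMSO-delivered compound.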

A further assay has as its target T2, SCD5 (Homo sapiens, UniProt Q86SK9).
T2 construct: host or cells: S. cerevisiae ole1Δ strain (W303 pdr1Δ pdr3Δ background), plasmid pRS316 with TDH3 promoter and CYC1 terminator
T2 sequence (Q86SK9 1-330): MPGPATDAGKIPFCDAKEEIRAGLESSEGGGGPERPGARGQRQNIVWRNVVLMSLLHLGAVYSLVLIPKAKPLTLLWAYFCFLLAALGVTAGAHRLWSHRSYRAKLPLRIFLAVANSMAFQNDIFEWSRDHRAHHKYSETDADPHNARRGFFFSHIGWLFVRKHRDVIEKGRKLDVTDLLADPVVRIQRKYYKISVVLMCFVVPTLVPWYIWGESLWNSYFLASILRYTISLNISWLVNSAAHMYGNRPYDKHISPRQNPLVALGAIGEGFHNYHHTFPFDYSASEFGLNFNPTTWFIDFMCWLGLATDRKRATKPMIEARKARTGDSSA
The assay can be described thus: Growth inhibition of humanized yeast strain expressing SCD5 as sole desaturase. Format: cell-based. An outline of the steps:
as §1

Setting [1] is: humanized yeast strain expressing SCD1.
Setting [2] is: humanized yeast strain expressing SCD5.
The mark [3] stands for this setting: growth inhibition of humanized yeast strain expressing human SCD1.
[4] abbreviates: growth inhibition of humanized yeast strain expressing human SCD5.

In the case of `CC(CF)n1ncc2ccc(-c3noc(C4CCN(C(=O)CC5(C)CC5)CC4)n3)cc21` (stereo not drawn) [Compound 585], the IC50 (usually the concentration needed to halve the response being measured) on SCD1 (setting [1]) was more than 45 µM; against SCD5 (setting [2]) it was 1.81 µM.
`CC(C)n1ncc2ccc(-c3noc(C4(F)CCN(C(=O)OC5CC5)CC4)n3)cc21` [Compound 624]: the results for the IC50 against SCD1 (setting [3]) and on SCD5 (setting [4]) were more than 45 µM and 0.222 µM, respectively.
Consider `Cn1ncc2ccc(-c3noc(C4CCN(C(=O)OC(C)(C)C)CC4)n3)cc21` [Compound 359], for which, on SCD1 (setting [1]), the “SCD1 % Max Inhibition” value was determined as 55.70%. On SCD5 (setting [2]), the IC50 is more than 45 µM and the “SCD5 % Max Inhibition” value turned out to be 0.81%.
As for `CCC(=O)N1CCC(c2noc(-c3ccc4cnn(C5CCOC5)c4c3)n2)CC1` (stereo not drawn) [Compound 975], the half-inhibitory concentration (IC50) was more than 45 µM against SCD1 (humanized yeast strain, 40 h) and 0.01 µM on SCD5 (humanized yeast strain, 40 h).
In the same order, the values of `CC(C)(C)OC(=O)N1CCC(c2nc(-c3ccc4cnn(C5(C)COC5)c4c3)no2)CC1` [Compound 753] are more than 45 µM and 0.585 µM.
In the same order, the values of `CC(C)(C)OC(=O)N1CCC(c2noc(-c3cc4c(Cl)nccn4c3)n2)CC1` [Compound 882] are 6.56 µM and 1.91 µM.
`CC(C)n1ncc2ccc(-c3noc(N4CCN(C(=O)OC5(C)CC5)CC4)n3)cc21` [Compound 496]: the IC50 against SCD1 (setting [1]) is more than 45 µM; against SCD5 (setting [2]) it was 0.445 µM.
As for `COC(=O)N1CCN(c2nc(-c3ccc4cnn(C5CCOC5)c4c3)no2)CC1` (stereo not drawn) [Compound 803], the IC50 was determined as 12.9 µM against SCD1 (humanized yeast strain, 40 h) and 0.679 µM against SCD5 (humanized yeast strain, 40 h).
In the case of `CC(C1CC1)n1ncc2ccc(-c3noc(C4CCN(C(=O)OC(C)(C)C)CC4)n3)cc21` (stereo not drawn) [Compound 640], the IC50 is more than 45 µM at SCD1 (setting [3]) and 3.98 µM against SCD5 (setting [4]).
Take `COC(=O)N1CC[C@H](c2noc(-c3ccc4cnn(C5COC5)c4c3)n2)C[C@H]1C` [Compound 1059]: the IC50 was more than 45 µM at SCD1 (humanized yeast strain, 40 h) and 0.00223 µM against SCD5 (humanized yeast strain, 40 h).
The like results for `COC(=O)N1CCC(c2noc(-c3ccc4cnn(C5CCCC5)c4c3)n2)CC1` [Compound 1042] were, in that order, more than 45 µM and 0.079 µM.
`Cc1nn(C)c2cc(-c3noc(C4CCN(CC5COC(=O)C5)CC4)n3)ccc12` (stereo not drawn) [Compound 567]: the IC50 against SCD1 (setting [1]) and against SCD5 (setting [2]) was more than 45 µM throughout.
Consider `COC(=O)N1CCC(c2nc(-c3ccc4cnn(C5CNC5)c4c3)no2)CC1` [Compound 950], for which the IC50 against SCD1 (humanized yeast strain, 40 h) is more than 45 µM; against SCD5 (humanized yeast strain, 40 h), more than 45 µM.
Consider `Cc1nn(C)c2cc(-c3noc(C4CCN(C(=O)CNC(=O)c5cccc(Cl)c5)CC4(F)F)n3)ccc12` (stereo not drawn) [Compound 603], for which the IC50 was determined as 7.26 µM at SCD1 (setting [1]) and 2.41 µM against SCD5 (setting [2]).
As for `Cn1cc(-c2cc(-c3nc(C4CCN(C(=O)OC(C)(C)C)CC4)no3)ccn2)cn1` [Compound 1182], the half-maximal inhibitory concentration (IC50) against SCD1 (humanized yeast strain, 40 h) was found to be 0.83 µM; at SCD5 (humanized yeast strain, 40 h), 0.72 µM.
The like results for `O=C(N1CCC(c2noc(-c3ccnc(C4CCOC4)c3)n2)CC1)C1(C(F)(F)F)CC1` (stereo not drawn) [Compound 1177] were, in that order, more than 45 µM and 0.84 µM.
For `CC(C)C(=O)N1CCN(c2noc(-c3ccnc(NC4COC4)c3)n2)CC1` [Compound 1133], the half-maximal inhibitory concentration (IC50) against SCD1 (humanized yeast strain, 40 h) was more than 45 µM; on SCD5 (humanized yeast strain, 40 h) it was more than 45 µM.
`Cc1ncc2n1CCN(c1noc(-c3ccc4cnn(C5COC5)c4c3)n1)C2` [Compound 949]: the IC50 against SCD1 (humanized yeast strain, 40 h) was more than 45 µM; on SCD5 (humanized yeast strain, 40 h), more than 45 µM.
For the molecule `COC(=O)N1CCC(c2nc(-c3ccnc(NC(C)C)c3)no2)CC1` [Compound 815], the IC50 against SCD1 (humanized yeast strain, 40 h) is more than 45 µM; against SCD5 (humanized yeast strain, 40 h), more than 45 µM.
In the case of `COC(=O)N1CCN(c2noc(-c3ccc4cnn(C5CNC5)c4c3)n2)CC1` [Compound 946], the IC50 against SCD1 (humanized yeast strain, 40 h) was more than 45 µM; on SCD5 (humanized yeast strain, 40 h), 4.11 µM.
The like results for `COC(=O)N1CCC(c2noc(-c3ccc4c(C)nn(C)c4c3)n2)CC1` [Compound 921] were, in that order, more than 45 µM and 3.4 µM.
For `CC(C)n1ncc2ccc(-c3noc(C4CCN(C(=O)N5CCC5(C)C)CC4)n3)cc21` [Compound 684], the IC50 at SCD1 (setting [3]) and against SCD5 (setting [4]) was more than 45 µM in each case.
